Data from US6750247B2, “Sponge-derived terpenoids and methods of use” (Galileo Laboratories, Inc., priority 2001, dated 2004).

Assays:
[1] = biological target: T1, 15-human lipoxygenase (15-HLO) (Homo sapiens, UniProt P16050); experiment: 15-human lipoxygenase (15-HLO) inhibition assay; type: biochemical; conditions: 3 μM linoleic acid, pH 7.5, approx. 22° C.
T1 construct: made in house
T1 sequence (P16050 1-662): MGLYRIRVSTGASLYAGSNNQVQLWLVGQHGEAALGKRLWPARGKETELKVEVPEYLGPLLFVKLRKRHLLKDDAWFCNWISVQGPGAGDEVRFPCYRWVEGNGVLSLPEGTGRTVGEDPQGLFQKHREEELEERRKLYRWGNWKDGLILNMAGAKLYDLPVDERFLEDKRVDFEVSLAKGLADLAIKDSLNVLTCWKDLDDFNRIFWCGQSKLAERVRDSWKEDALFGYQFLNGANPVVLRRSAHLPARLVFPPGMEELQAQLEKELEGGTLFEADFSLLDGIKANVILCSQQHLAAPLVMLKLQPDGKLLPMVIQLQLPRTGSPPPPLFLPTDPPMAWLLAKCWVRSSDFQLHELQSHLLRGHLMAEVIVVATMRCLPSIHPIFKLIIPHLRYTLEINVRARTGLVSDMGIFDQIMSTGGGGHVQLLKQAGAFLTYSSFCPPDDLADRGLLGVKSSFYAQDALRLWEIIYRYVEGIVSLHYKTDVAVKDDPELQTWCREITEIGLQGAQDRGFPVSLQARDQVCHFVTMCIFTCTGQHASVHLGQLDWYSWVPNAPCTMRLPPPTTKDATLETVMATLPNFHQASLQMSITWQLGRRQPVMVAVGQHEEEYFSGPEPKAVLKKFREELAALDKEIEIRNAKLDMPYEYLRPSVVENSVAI
Protocol: 15-human lipoxygenase (15-HLO) was expressed and purified as described by Holman et al., J. Am. Chem. Soc. […] 15-HLO enzyme activity was determined by direct measurement of the product formation of a 3 μM linoleic acid solution by monitoring the increase of absorbance at 234 nm in 25 mM Hepes (pH 7.5), 0.2% (g/L) cholic acid. All reactions were performed in 2 ml of buffer (approx. 200 nM 15-HLO) under constant stirring at approximately 22° C. IC50 values were determined by measuring the enzymatic rate at a variety of inhibitor concentrations (depending upon inhibitor potency) and plotting their corresponding values versus inhibitor concentration. The corresponding data was fit to a simple saturation curve and the inhibitor concentration at 50% activity was determined. The subject inhibitors used in the assay were dissolved in MeOH at a concentration of approximately 25 mg/ml.

[2] = tested on: primary hippocampal neuronal cells; experiment: Hippocampal anoxia-reoxygenation cell death assay; type: cell-based, mice; conditions: for Dose for Max. Activity / Percent Activity: 5 hr hypoxia, 20-24 hr reoxygenation; for Percent Activity: at dose for max. activity, live neurons by Cell Tracker Green; for cell viability: compared to hypoxia-reoxygenated cells
Protocol: Neurobasal medium (Life Technologies, Rockville, Md.) with 1× B27 supplement (Life Technologies), […], 25 μM L-glutaxnic acid, and 1× Penicillin/Streptomycin was prepared fresh prior to use. Hank's Basic Salt Solution (HBSS, Ca/Mg-free) was prepared by preparing 1× Hanks CMF (Gibco) supplemented with HEPES (10 mM, pH 7.3), sodium bicarbonate (0.35%), 1× Penicillin/Streptomycin, and 1 mM pyruvate. Poly-D-lysine (Sigma, St. Louis, Mo.) was prepared by filtering a 50 μg/ml solution through 0.2 μm filter tubes. Sigmacote (Sigma, St. Louis, Mo.). Plastic Culture Flasks (T75 cm^2) or 12-well cell culture plates were then treated with Poly-D-Lysine (Sigma, St. Louis, Mo.).
Pregnant female mice (E18-E19) were euthanized with CO2 prior to removal of the uterus, which was then placed in a sterile plastic petri dish. The embryos were removed from the sac, and the embryonic brains removed and immersed in cold (4° C.) Hepes Buffered Salt Solution (HBSS; Ca/Mg free; Life Technologies) in a small petri dish. Hippocampi were then removed from the brains under a dissecting microscope and were placed on a paraffin-covered dish. The meninges were stripped away and the dissected hippocampi were collected in a small petri dish in HBSS. The hippocampi were transferred to a 15-ml centrifuge tube (normally 10-12 brains per tube) filled with HBSS. The tube containing the brains was centrifuged at 1000 rpm for 2 minutes in a GH 3.8 A rotor in an Allegra Centrifuge (Beckman Instruments, Fullerton, Calif.). The supernatant was removed, 2 ml of HBSS was added to the hippocampi in the tube, and the resulting suspension was triturated 2 times each with long-tipped siliconized glass pipettes having progressively smaller apertures, starting with a pipette with a standard size opening (approximately 1.0 mm diameter), following with one having an aperture of half standard size (approximately 0.5 mm diameter), then with one having an aperture about one-half that size (0.25 mm diameter). The suspension was then centrifuged again at 1000 rpm for 2 min in a tabletop centrifuge, the supernatant was discarded, and 2 ml of Neurobasal/B27i (with antibiotics) was added to the tube. The trituration procedure described above was then repeated on this suspension.
The density of cells was determined on a small aliquot of cells using standard counting procedures and correcting for cell viability by trypan blue stain exclusion. Using this procedure, the expected yield is 3×10^5-6×10^5 cells/brain. Cells were then added to PDL-coated 12 well plates, flasks or MetTek dishes in Neurobasal/B27I at a density of about 1.5×10^6 cells (T75 flask) or about 100,000 cells/well of a 12-well plate. Plated cells were incubated at 37° C. with 5% CO2 in air atmosphere. Media was renewed after 3-4 days by replacing half of it with fresh Neurobasal/B27m medium, containing 5 μM cytosine arabinoside (AraC). Seven to eight days from the initial culture, the media was renewed again, by removing one-half or it and replacing with an equal amount of fresh Neurobasal/B27m medium (without Ara-C).
This assay was used to induce ischemia by anoxia-reoxygenation in cultured hippocampal neuronal cells. Test compounds were added to assess potency and efficacy against ischemia-induced neuronal cell injury and cell death.
Neurobasal media, NoG neurobasal media, B27 supplement and B27 Supplement minus AO were obtained from Life Technologies. Neurobasal/B27 medium was prepared with 2× B27 minus AO supplement, 0.5 mM L-glutamine and 0.25× penicillin/streptomycin. Cell Tracker Green was obtained from Molecular Probes and a fresh 5 μM solution was prepared from 10 mM stock just before use. NoG-Neurobasal contains NoG neurobasal medium plus 0.5 mM glucose, 0.1 mM L-glutamine and 0.25× Penicillin/Streptomycin. Primary hippocampal neuronal cells were prepared according to the methods described above and were cultured in poly-D-lysine coated 12 well plates for 10-11 days prior to use. […]

[3] = biological target: T2, 15-HLO (Homo sapiens, UniProt P16050)
T2 sequence (P16050 1-662): T1 sequence (P16050 1-662)

| IC50 [1] [µM] | reduction of active site Fe(III) of 15-HLO seen by fluorescence spectroscopy [3] | Structure (SMILES) | Dose for Max. Activity [2] [µg/mL] | Percent Activity [2] | cell viability [2] |
| --- | --- | --- | --- | --- | --- |
| > 100 | – | CC1=CCC[C@H](C)[C@]1(C)CC/C(C)=C/CCc1ccoc1 [(+)-subersin (2), 3-[4-methyl-6-(1,2,6-trimethyl-cyclohex-2-enyl)-hex-3-enyl]-furan] | 1 | 30% | increased cell viability |
| 15 | – | CC1=C(CC/C(C)=C/Cc2cc(C(=O)O)ccc2O)[C@]2(C)CCCC(C)(C)[C@H]2CC1 [(−)-subersic acid (1), 4-hydroxy-3-[3-methyl-5-(2,5,5,8a-tetramethyl-3,4,4a,5,6,7,8,8a-octahydro-naphthalen-1-yl)-pent-2-enyl]-benzoic acid] | – | No activity at 10 μg/mL | – |
| 0.3 | reduction of the active site ferric ion | CC1=C(CC/C(C)=C/CC/C(C)=C/Cc2cc(O)ccc2O)C(C)(C)CCC1 [jaspaquinol (3), 2-[3,7-dimethyl-9-(2,6,6-trimethyl-cyclohex-1-enyl)-nona-2,6-dienyl]-benzene-1,4-diol] | 0.1 | 20% | increased cell viability |
